“And” between values parts separate entries of the source, which are not always exact repeats. Identical values can stand only once. Inconclusive results are not listed.
System: nude mice, A549 intrarenal xenograft, tumor weight change
Assay: NCI In Vivo Anticancer Drug Screen. Data for tumor model A549 Human Adenocarcinoma of Lung with characteristics of Type II Alveolar Epithelial cells (intrarenal inoculation) in NU/NU BALB/C (nude) mice
Details: endpoint: mean tumor weight change, higher = larger tumour
Outline: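 Mice bearing transplantable tumors were treated and survival or tumor size recorded. Values are given as treated-group measurement divided by vehicle-control measurement (T/C).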

[1] = dose: 75.0 mg/kg/injection, schedule: Q04DX003 (ip), vehicle: Klucel (hydroxypropylcellulose) (HPC)
[2] = dose: 150.0 mg/kg/injection, schedule: Q04DX003 (ip), vehicle: Klucel (hydroxypropylcellulose) (HPC)
[3] = dose: 300.0 mg/kg/injection, schedule: Q04DX003 (ip), vehicle: Klucel (hydroxypropylcellulose) (HPC)
[4] = dose: 150.0 mg/kg/injection, schedule: Q04DX003 (ip), vehicle: saline with Tween-80
[5] = dose: 25.0 mg/kg/injection, schedule: Q04DX003 (ip), vehicle: saline with Tween-80
[6] = dose: 50.0 mg/kg/injection, schedule: Q04DX003 (ip), vehicle: saline with Tween-80
[7] = dose: 100.0 mg/kg/injection, schedule: Q04DX003 (ip), vehicle: saline with Tween-80
[8] = dose: 200.0 mg/kg/injection, schedule: Q04DX003 (ip), vehicle: saline with Tween-80
[9] = dose: 12.5 mg/kg/injection, schedule: Q04DX003 (ip), vehicle: saline with Tween-80
[10] = dose: 37.5 mg/kg/injection, schedule: Q04DX003 (ip), vehicle: Klucel (hydroxypropylcellulose) (HPC)
[11] = dose: 600.0 mg/kg/injection, schedule: Q04DX003 (ip), vehicle: Klucel (hydroxypropylcellulose) (HPC)
[12] = dose: 25.0 mg/kg/injection, schedule: Q04DX003 (ip), vehicle: saline
[13] = dose: 30.0 mg/kg/injection, schedule: Q04DX003 (ip), vehicle: saline with Tween-80
[14] = dose: 60.0 mg/kg/injection, schedule: Q04DX003 (ip), vehicle: saline with Tween-80
[15] = dose: 120.0 mg/kg/injection, schedule: Q04DX003 (ip), vehicle: saline with Tween-80
[16] = dose: 50.0 mg/kg/injection, schedule: Q04DX003 (ip), vehicle: saline

In the case of `CC1(C)Nc2cc3c(cc2-n2cccc21)oc1ccccc13`, the T/C (dose: 150.0 mg/kg/injection, schedule: Q04DX003 (ip), vehicle: saline) is reported as 77 % of control, the T/C (dose: 300.0 mg/kg/injection, schedule: Q04DX003 (ip), vehicle: saline) is reported as 98 % of control and the T/C (dose: 600.0 mg/kg/injection, schedule: Q04DX003 (ip), vehicle: saline) is reported as 66 % of control. For the same compound, the T/C (dose: 1200.0 mg/kg/injection, schedule: Q04DX003 (ip), vehicle: saline) was 57 % of control.

`COc1cc(C)c(C2NC(=O)c3ccccc3N2)cc1C` (stereo not given) was tested, and the T/C [1] was 5 % of control, the T/C (dose: 129.6 mg/kg/injection, schedule: Q04DX003 (ip), vehicle: Klucel (hydroxypropylcellulose) (HPC)) was 161 % of control and the T/C [2] was 47 % of control. The T/C [3] was 6 % of control, the T/C (dose: 360.0 mg/kg/injection, schedule: Q04DX003 (ip), vehicle: Klucel (hydroxypropylcellulose) (HPC)) was 112 % of control and the T/C (dose: 1000.0 mg/kg/injection, schedule: Q04DX003 (ip), vehicle: Klucel (hydroxypropylcellulose) (HPC)) was 65 % of control.

`O=S(=O)(c1cccc(N=C=S)c1)c1cccc(N=C=S)c1` was tested, and the T/C (dose: 30.0 mg/kg/injection, schedule: Q04DX003 (ip), vehicle: Klucel (hydroxypropylcellulose) (HPC)) was 67 % of control.

In the case of `NC(=O)c1[nH]cnc1O`, the T/C [4] is reported as 151 % of control.

With `CN=C(N)c1ccc(N=C(N)c2ccc(C(N)=Nc3ccc(C(N)=NC)cc3)cc2)cc1` the T/C (dose: 13.0 mg/kg/injection, schedule: Q06HX010 (ip), vehicle: water) was 70 % of control and the T/C (dose: 20.0 mg/kg/injection, schedule: Q06HX010 (ip), vehicle: water) was 98 % of control.

With `O=C1CNC(=O)N1CN1CCOCC1` the T/C [2] was 198 % of control and the T/C [3] was 69 % of control.

In the case of `CN(C)/N=N/c1nc[nH]c1C(N)=O`, the T/C (dose: 75.0 mg/kg/injection, schedule: Q04DX003 (ip), vehicle: suspension in saline) is reported as 11 % of control, the T/C (dose: 150.0 mg/kg/injection, schedule: Q04DX003 (ip), vehicle: suspension in saline) is reported as 48 % of control and the T/C (dose: 225.0 mg/kg/injection, schedule: Q04DX003 (ip), vehicle: suspension in saline) is reported as 8 % of control.

`O=C1C2CC(Cl)C(SSC3CC4C(=O)N(SC(Cl)(Cl)C(Cl)Cl)C(=O)C4CC3Cl)CC2C(=O)N1SC(Cl)(Cl)C(Cl)Cl` (stereo not given) was tested, and the T/C [5] was 123 % of control, the T/C [6] was 78 % of control and the T/C [7] was 98 % of control. For the same compound, the T/C [8] was 73 % of control.

For `C/C(=N\NC(=S)N1CC2CCC(CC2)C1)c1nccs1`, the T/C [9] was 62 % of control, the T/C [5] was 47 % of control and the T/C [6] was 32 % of control.

For `CC(C)(C)c1ccc(C(=O)N2CCOC23CCCCC3)cc1`, the T/C [4] was 55 % of control, the T/C (dose: 300.0 mg/kg/injection, schedule: Q04DX003 (ip), vehicle: saline with Tween-80) was 28 % of control and the T/C (dose: 600.0 mg/kg/injection, schedule: Q04DX003 (ip), vehicle: saline with Tween-80) was 63 % of control. The T/C (dose: 1200.0 mg/kg/injection, schedule: Q04DX003 (ip), vehicle: saline with Tween-80) was 42 % of control.

`CC1=C(C(N)=O)C(c2ccccc2)NC(=S)N1` (stereo not given) was tested, and the T/C [10] was 66 % of control, the T/C [1] was 92 % of control and the T/C [2] was 83 % of control. For the same compound, the T/C [3] was 181 % of control.

For `CCOC(=O)C1=C(C)O/C(=C/c2cccc(Cl)c2)C1=O`, the T/C [5] was 48 % of control, the T/C [6] was 51 % of control and the T/C [7] was 77 % of control. For the same compound, the T/C [8] was 18 % of control.

`CCOC1NC(=O)Oc2ccccc21` (stereo not given) was tested, and the T/C [2] was 43 % of control and the T/C [11] was 54 % of control.

With `COc1cccc2c1C(=O)c1c(O)c3c(c(O)c1C2=O)C[C@](O)(C(=O)CO)CC3OC1CC(N)C(OC2CCCCO2)C(C)O1` (stereo not given in full) the T/C (dose: 1.88 mg/kg/injection, schedule: Q04DX003 (ip), vehicle: water) was 35 % of control, the T/C (dose: 3.75 mg/kg/injection, schedule: Q04DX003 (ip), vehicle: water) was 74 % of control and the T/C (dose: 7.5 mg/kg/injection, schedule: Q04DX003 (ip), vehicle: water) was 28 % of control. For the same compound, the T/C (dose: 15.0 mg/kg/injection, schedule: Q04DX003 (ip), vehicle: water) was 4 % of control.

For `CCN(CC)CC(C)(C)C(=O)/C=C/c1ccc(/C=C/C(=O)C(C)(C)CN(CC)CC)cc1`, the T/C (dose: 15.0 mg/kg/injection, schedule: Q04DX003 (ip), vehicle: saline) was 84 % of control, the T/C (dose: 30.0 mg/kg/injection, schedule: Q04DX003 (ip), vehicle: saline) was 73 % of control and the T/C (dose: 60.0 mg/kg/injection, schedule: Q04DX003 (ip), vehicle: saline) was 82 % of control.

For `COC1CC2C=C(C)/C=C/C=C/C(=O)NC(c3ccccc3)C/C=C/CCC(O)CC(=O)C2=C1O` (stereo not given), the T/C [10] was 17 % of control, the T/C [1] was 115 % of control and the T/C [2] was 113 % of control.

For `O=c1[nH]cc(F)c(=O)[nH]1`, the T/C [12] was 207 % of control and the T/C (dose: 100.0 mg/kg/injection, schedule: Q04DX003 (ip), vehicle: saline) was 28 % of control.

With `CC1Oc2cc3c(-c4c(O)cc(O)c5c(O)c6c(cc45)OC(C)C(C)C6=O)c(O)cc(O)c3c(O)c2C(=O)C1C` (stereo not given) the T/C (dose: 0.19 mg/kg/injection, schedule: Q04DX003 (ip), vehicle: suspension in saline) was 60 % of control, the T/C (dose: 0.38 mg/kg/injection, schedule: Q04DX003 (ip), vehicle: suspension in saline) was 51 % of control and the T/C (dose: 0.75 mg/kg/injection, schedule: Q04DX003 (ip), vehicle: suspension in saline) was 83 % of control. For the same compound, the T/C (dose: 3.0 mg/kg/injection, schedule: Q04DX003 (ip), vehicle: suspension in saline) was 63 % of control and the T/C (dose: 6.0 mg/kg/injection, schedule: Q04DX003 (ip), vehicle: suspension in saline) was 77 % of control.

In the case of `COc1ccc(N=N/N=c2\sc3cc(OC)ccc3n2C)cc1`, the T/C [13] is reported as 100 % of control, the T/C [14] is reported as 87 % of control and the T/C [15] is reported as 73 % of control. For the same compound, the T/C (dose: 240.0 mg/kg/injection, schedule: Q04DX003 (ip), vehicle: saline with Tween-80) was 37 % of control.

For `NC(N)=NS(=O)(=O)c1ccc(NCc2c3ccccc3nc3ccccc23)cc1`, the T/C [2] was 4 % of control, the T/C [3] was 10 % of control and the T/C [11] was -10 % of control. The T/C (dose: 1200.0 mg/kg/injection, schedule: Q04DX003 (ip), vehicle: Klucel (hydroxypropylcellulose) (HPC)) was -7 % of control.

For `COc1cc2c(cc1OC)[C@@H]1C(=O)c3ccc4c(c3O[C@@H]1CO2)C[C@H](C(C)C)O4`, the T/C (dose: 21.25 mg/kg/injection, schedule: Q04DX003 (ip), vehicle: Klucel (hydroxypropylcellulose) (HPC)) was 90 % of control, the T/C (dose: 42.5 mg/kg/injection, schedule: Q04DX003 (ip), vehicle: Klucel (hydroxypropylcellulose) (HPC)) was 87 % of control and the T/C (dose: 85.0 mg/kg/injection, schedule: Q04DX003 (ip), vehicle: Klucel (hydroxypropylcellulose) (HPC)) was 37 % of control.

For `CC(=O)/C(=C\c1ccc(Cl)c(Cl)c1)C(=O)CCN(C)C`, the T/C (dose: 12.5 mg/kg/injection, schedule: Q04DX003 (ip), vehicle: saline) was 78 % of control, the T/C [12] was 39 % of control and the T/C [16] was 32 % of control.

For `C=CCOc1cc2c(cc1C(C)c1ccc(OC)cc1)OCO2` (stereo not given), the T/C [1] was 58 % of control and the T/C [2] was 94 % of control and 77 % of control.

In the case of `Cn1c(=S)sc2nc3ccccc3n2c1=S`, the T/C [13] is reported as 83 % of control, the T/C [14] is reported as 50 % of control and the T/C [15] is reported as 73 % of control.

For `Nc1ccc(S(=O)(=O)Nc2cnc3c(Cl)cccc3n2)cc1`, the T/C (dose: 220.0 mg/kg/injection, schedule: Q04DX003 (ip), vehicle: saline) was 70 % of control, the T/C (dose: 315.0 mg/kg/injection, schedule: Q04DX003 (ip), vehicle: saline) was 53 % of control and the T/C (dose: 450.0 mg/kg/injection, schedule: Q04DX003 (ip), vehicle: saline) was 43 % of control. The T/C (dose: 642.9 mg/kg/injection, schedule: Q04DX003 (ip), vehicle: saline) was 52 % of control.

With `COc1ccc(C=C(C(=O)CCN(C)C)C(=O)CCN(C)C)cc1` the T/C [16] was 96 % of control and the T/C (dose: 200.0 mg/kg/injection, schedule: Q04DX003 (ip), vehicle: saline) was 101 % of control.

`COc1ccc(C(C)c2cc3c(cc2OC)OCO3)cc1` (stereo not given) was tested, and the T/C [9] was 17 % of control, the T/C [5] was 18 % of control and 43 % of control and the T/C [6] was 33 % of control.
